Measured values reported in patent US20110275693A1, “Pharmaceutical Compositions Comprising 2-Oxo-1-Pyrrolidine Derivatives” (UCB PHARMA, S.A., priority 2009, published 2011).

Tests used:
corneally kindled mice = assay: Corneal kindling of mice; assay type: in vivo
[1] = system: pentylenetetrazol-induced clonic convulsions in mice; assay: Chemically induced seizures in mice (pentylenetetrazol); assay type: in vivo; details: i.p. 30 min before seizure induction, higher ED50 values than audiogenic model
Experimental: The dose was selected based on dose-effect curves in saline-treated animals as the convulsive dose inducing clonic convulsions of all four extremities in 97% of the animals. Immediately after administration of the chemoconvulsant, the mice were placed individually in small plastic cages (25 13 8 cm) and observed for the presence of clonic convulsions in all four extremities, for 60 min. The occurrence of tonic convulsions (hindlimb extension) and mortality was also recorded during this interval. The proportion of mice protected against clonic convulsions was calculated and used as the end point for anticonvulsant activity.

[2] = system: genetically sound-sensitive male mice; assay: Audiogenic seizures in mice; assay type: in vivo; details: audiogenic seizure-susceptible mice; brivaracetam i.p. 30 min, levetiracetam i.p. 60 min pretreatment
Experimental: Audiogenic seizures in mice: Genetically sound-sensitive male mice (16-28 g; n=10 per group), responding with wild running, clonic and tonic convulsions to an acoustic stimulation, were used. Audiogenic seizures were induced by an acoustic stimulus (90 dB, 10-20 kHz) applied for 30 s. The mice were pretreated with either saline, brivaracetam (i.p., 30 min) or levetiracetam (i.p., 60 min), and the proportion of mice protected against clonic convulsions was used as the end point to assess anticonvulsant activity.

rat hippocampal slices [3] = assay: Epileptiform responses in hippocampal slices (field potentials, CA3 area); assay type: cell-based, Sprague-Dawley rats; design: rate of spontaneous field bursting in HKLCF: dose or concentration left out as unconfirmed; details: for evoked epileptiform responses (PS1 amplitude, repetitive PSs) in HKLCF: CA3 area, fimbrial stimulation, high-K+/low-Ca2+ fluid
Experimental: The effect of brivaracetam on epileptiform responses induced by high-K+/low-Ca2+ concentrations or by bicuculline was examined in transverse hippocampal slices prepared from Sprague-Dawley rats according to previously reported standard procedures. The epileptiform responses were induced by passing from a normal perfusion of artificial cerebrospinal fluid (ACSF) (K+3 mM; Ca2+2.4 mM) to either high-K+/low-Ca2+ fluid (HKLCF) (K+7.5 mM; Ca2+0.5 mM) or to […] bicuculline methiodide (BMI)-containing ACSF.
Extracellular field potentials (FPs) were recorded in the CA3 area of the slices with 2 M NaCl-filled glass microelectrodes. The evoked FPs were recorded at 10-min intervals in response to fimbrial stimulation with constant current rectangular pulses that elicit a single population spike (PS) of 50-75% of the maximal amplitude when the slice is in ACSF. In the HKLCF model, 2 min of spontaneous activity were also recorded, in the middle of each 10-min interval between the recordings of evoked responses.
Either brivaracetam or levetiracetam was added to the bathing fluid of the slices 20 min before shifting from ACSF to either HKLCF or […] BMI-containing ACSF, and was kept in the perfusion fluid throughout the experiment.

GAERS rats = assay: Spontaneous SWDs in GAERS rats; assay type: in vivo, rat
amygdala-kindled rats = assay: Fully amygdala-kindled rats; assay type: in vivo, rat; details: for dose significantly reducing the after-discharge duration: 212.3 is the highest brivaracetam dose tested
epilepsy patients = details: adult patients, adjunctive treatment; cited from earlier work
[4] = system: patients with post-herpetic neuralgia; details: cited from earlier work
rat hippocampal slices [5] = details: cited from earlier work

| SMILES | incidence of generalized motor seizures after termination of treatment (corneally kindled mice; continued corneal stimulations, group previously treated with the highest dose) | incidence of generalized motor seizures (corneally kindled mice; pretreatment during corneal kindling of mice) | protection against clonic convulsions induced by pentylenetetrazol [1] | protection against the expression of clonic convulsions [2] | rate of spontaneous field bursting in HKLCF (rat hippocampal slices [3]) | evoked epileptiform responses (PS1 amplitude, repetitive PSs) in HKLCF (rat hippocampal slices [3]) | dose from which spontaneous SWDs are significantly suppressed (GAERS rats) | dose giving complete inhibition of spontaneous SWDs (GAERS rats; highest dose tested) | dose from which significant suppression in motor-seizure severity is induced (amygdala-kindled rats) | dose significantly reducing the after-discharge duration (amygdala-kindled rats) | efficacy in the treatment of epilepsy (epilepsy patients) | efficacy in the treatment of post-herpetic neuralgia [4] | epileptiform responses induced by high-K+/low-Ca2+ concentrations in the perfusion fluid and by bicuculline (rat hippocampal slices [5]) |
| --- | --- | --- | --- | --- | --- | --- | --- | --- | --- | --- | --- | --- | --- |
| CCC[C@@H]1CC(=O)N([C@@H](CC)C(N)=O)C1 [Brivaracetam, (2S)-2-[(4R)-2-oxo-4-propyl-pyrrolidin-1-yl] butanamide] | persistent reduction in the incidence of generalized motor seizures | significant reduction in the incidence of generalized motor seizures | protected against clonic convulsions induced by pentylenetetrazol | protected against the expression of clonic convulsions | reduced the rate of this spontaneous bursting | reduced these epileptiform responses | ≥ 2.1 mg/kg | 67.9 mg/kg | ≥ 21.2 mg/kg | 212.3 mg/kg | effective in the treatment of epilepsy | effective in the treatment of patients with post-herpetic neuralgia | – |
| CC[C@@H](C(N)=O)N1CCCC1=O [Levetiracetam] | – | – | – | protected against the expression of clonic convulsions | – | reduced these epileptiform responses | – | – | ≥ 170 mg/kg | > 1700 mg/kg | – | – | reduces epileptiform responses |
| CC[C@@H](C(N)=O)N1C[C@H](C=C(F)F)CC1=O [Seletracetam, (2S)-2-[(4S)-4-(2,2-difluorovinyl)-2-oxo-pyrrolidin-1-yl]butanamide] | – | – | – | – | – | – | – | – | – | – | effective in the treatment of epilepsy | – | – |
